{
  "source": "patent US20220296674A1",
  "about": "“CELL PENETRATING PEPTIDES FOR INTRACELLULAR DELIVERY OF MOLECULES” (INSERM (INSTITUT NATIONAL DE LA SANTÉ ET DE LA RECHERCHE …, priority 2019, published 2022)",
  "key": {"various cell lines [1]": {"test_system": "various cell lines", "assay": "Lactate dehydrogenase (LDH) release assay of the shuttle peptides", "type": "cell-based", "method": "(§1) FIG. 4 Lack of toxicity and immunogenicity of hAP10 and hAP10DR. (A) The indicated cells were exposed to increasing concentrations of hAP10 or hAP10DR for 20 h. Viability was then assessed by an MTT assay. Data are means±s.e.m. (n=3). (B) Necrotic cell death was monitored by lactate dehydrogenase (LDH) release from cells into the culture medium. The obtained values were normalized to those of the maximum LDH released (completely lysed) control. Data are means±s.e.m. (n=3). […] Mice red blood cells were incubated with 30 μM of hAP10 or hAP10DR. Released hemoglobin was detected by densitometry at 540 nm. Hemoglobin release by cells treated with 1% Triton X-100 was used as 100% lysis control. (D) Levels of IL-6 secretion from RAW 264.7 cells exposed to 10 μM of hAP10 or hAP10DR or LPS (1 μg/ml) for 24 h. Data are means±s.e.m. (n=3).\n(§2) Cells survival was assessed with the CellTiter 96® Aqueous One Solution Cell Proliferation Assay kit (Promega, Madison, Wis.). Necrotic plasma membrane permeabilization was assessed by lactate dehydrogenase (LDH) leakage in the culture medium with the CytoTox 96® Non-Radioactive Cytotoxicity Assay kit (Promega, Madison, Wis.)."}, "Mice red blood cells": {"test_system": "Mice red blood cells", "assay": "Hemolysis assay", "type": "cell-based", "conditions": "30 μM, 37° C., 1 h; 1% Triton X-100 = 100% lysis", "method": "as §1\nMice blood was centrifuged at 2000 rpm for 10 min. Red blood cell pellets were washed five times with PBS and resuspended in normal saline. For each assay, 1×10^7 red blood cells were incubated with or without peptide (30 μM) in normal saline at 37° C. for 1 h. The samples were then centrifuged and the absorbance of the supernatant was measured at 540 nm. To determine the percentage of lysis, absorbance readings were normalized to lysis with 1% Triton X-100."}, "[2]": {"test_system": "RAW 264.7 murine macrophages", "assay": "Immunogenicity assay: IL-6 secretion (ELISA)", "type": "cell-based", "conditions": "10 μM peptide or LPS 1 μg/ml, 24 h", "method": "as §1\nRAW 264.7 murine macrophages were seeded (1×10^4 cells/cm^2) in a 24-well plate and allowed to grow for 24 h. Then, cells were left untreated or exposed to the hAP10 or hAP10DR peptides (10 μM) or to LPS (E. Coli O111:b4, 1 μg/ml) as a positive control for 24 h. Levels of IL-6 in the supernatants were analyzed using an Mouse IL-6 Quantikine ELISA Kit (R&D system)."}, "non T-cells (CD3−)": {"test_system": "non T-cells (CD3−)", "type": "cell-based, human", "method": "(§3) FIG. 7 RT33 and RT33DR specifically induce primary Sézary cells death. Sézary patients' PBMC were incubated with increasing concentrations of the indicated peptides for 4 h at 37° C. Cells were then analyzed by flow cytometry following labeling with anti-TCRVβ-FITC, -CD4-PE, -CD3-PE-Cy7 mAbs and 7-AAD. Data are shown as the means±s.e.m. of the percentage of 7-AAD+apoptotic cells within the following populations: malignant (CD3^+CD4^+TCR-V β^+) and non-malignant (CD3^+CD4^+TCR-Vβ^−) CD4+T-cells and non T-cells (CD3^−), derived from three different patients.\n(§4) PBMC exposed or not to RT33 or RT33DR were processed for flow cytometry to assess cell death. Cells were labelled with a mix of anti-TCR-Vβ-FITC, -CD3-PE and -CD4-PECy7 mAbs (Beckman Coulter). Detection of apoptotic cells was performed using 7AAD (BD Biosciences). Cells were analyzed on a CytoFlex cytometer (Beckman Coulter) and data treated with FlowJo software."}, "[3]": {"test_system": "non-malignant (CD3+CD4+TCR-Vβ−) CD4+ T-cells", "type": "cell-based, human", "method": "as §3, §4"}, "various cell lines [4]": {"test_system": "various cell lines", "type": "cell-based", "conditions": "data not shown", "method": "as §1, §2"}, "U2OS cells": {"test_system": "U2OS cells", "assay": "Live cell fluorescence microscopy of FITC-labelled peptides", "type": "cell-based", "conditions": "5 μM FITC-labelled peptide, 1 h", "method": "FIG. 2 Cellular uptake of hAP10 and hAP10DR. (A) HUT78 cells were incubated with 5 μM of FITC-labelled hAP10 and hAP10DR or penetratin and TAT as controls for 1 h in complete medium. Cells were then washed with PBS, incubated in trypsin-EDTA solution (0.01% trypsin) at 37° C. for 10 min, resuspended in PBS and subjected to flow cytometry (right). Left: Bar diagram representing the uptake of the FITC-labelled peptides as mean cellular fluorescence from the flow cytometry analysis of live cells positive for FITC. Data are means±s.e.m. (n=3). (B) Fluorescence quantification of FITC-labelled hAP10 and hAP10DR uptaken in human B lymphocytes. Cells were incubated with 5 μM of FITC-labelled hAP10 and hAP10DR or penetratin and TAT as controls for 1 h in complete medium, washed with PBS and the fluorescence of the cell lysis measured as described in Material and Methods. Data are means±s.e.m. (n=3). (C) Intracellular distribution of FITC-labelled hAP10 and hAP10DR in U2OS cells. U2OS cells grown on coverslips were incubated with 5 μM of FITC-labelled hAP10 and hAP10DR or penetratin and TAT as controls for 1 h in complete medium, washed trice with PBS and live cells were imaged using fluorescence microscopy. […] Following incubation, the cells were washed three times in PBS and imaged using a Zeiss Axiovert 200 M inverted fluorescence microscope."}, "HUT78": {"test_system": "HUT78", "assay": "Cell viability (MTT) after RT33 / RT33DR", "type": "cell-based", "conditions": "50 μM zVAD-fmk, 20 h", "method": "(§5) FIG. 6 RT33 and RT33DR induces cancer cells, but not normal cells, death. (A) Amino-acid sequence of RT33 and RT3DR. hAP10 and hAP10DR sequences are in bold. (B) The indicated cells were exposed to increasing concentrations of RT33 or RT3DR for 20 h. Viability was then assessed by an MTT assay. Data are means±s.e.m. (n=3). (C) HUT78 cells were exposed to increasing concentrations of RT33 or RT3DR for 20 h in the presence and absence of 50 μM zVAD-fmk or 50 μM Necrostatin-1 (Nec-1). Viability was then assessed by an MTT assay. Data are means±s.e.m. (n=3). (D) HUT78 cells were exposed to 20 μM of RT33 or RT33DR for 3 h. Necrotic cell death was monitored by lactate dehydrogenase (LDH) as in FIG. 4 (B). Data are means±s.e.m. (n=3). (E) Ultrastructural analysis of HUT78 cells treated with 15 μM of hAP10 or hAP10DR for 1 h. (F) Structural prediction of RT33 and RT33DR. The segments corresponding to the hAP10 and hAP10DR moieties are in light grey. (G) Cancerous C8161 cells or non-cancerous MRC-5 cells were exposed to FITC-labelled RT33 or RT33DR for 1 h. Cels were then examined by fluorescence microscopy.\nas §2"}, "HaCat": {"test_system": "HaCat", "assay": "Cell viability (MTT) after RT33 / RT33DR", "type": "cell-based", "conditions": "increasing concentrations, 20 h", "method": "as §5, §2"}, "MRC-5": {"test_system": "MRC-5", "assay": "Cell viability (MTT) after RT33 / RT33DR", "type": "cell-based", "conditions": "increasing concentrations, 20 h", "method": "as §5, §2"}, "[5]": {"test_system": "HUT78 Sézary cell line xenograft tumors", "assay": "Xenograft tumor model of Sézary syndrome", "type": "in vivo", "conditions": "systemic administration, single agent", "method": "FIG. 8 RT33 and RT33DR inhibit tumor growth in vivo in a mouse model for the Sézary syndrome. (A) Mice were engrafted subcutaneously with HUT78 Sézary cell line. Animals with preexisting tumors were treated daily with i.p. injections of RT33 or RT33DRM in normal saline (5 mg/kg) or normal saline as control. Tumors were calipered throughout the study and data were plotted as means±s.e.m. (n=7 mice per group). p<0.005 relative to control. Subsequently, tumors were excised, stripped of non-tumor tissue and tumors volumes were calculated. (B) Representative pictures of H&E staining of tumors treated with RT33, RT33DRM, or normal saline. The scale bar represents 500 μm.\nAnimal experiments were approved by The University Board Ethics Committee for Experimental Animal Studies (#2303.01). Xenograft tumors were obtained by subcutaneous injection of 10^6 HUT78 cells in the right flank of 8-week-old female NOD-SCID-gamma (NSG) mice, bred and housed under pathogen-free conditions at our animal facility (IUH, Saint Louis Hospital, Paris, France). Treatment started after randomization when tumors were visible and consisted of daily intraperitoneal (i.p.) injection of normal saline or RT33 or RT33DR in normal saline (n=5 per group). Tumor volume was measured every other day and calculated as: long axis X short axis^2 ×0.5. […]"}},
  "note": "Where no end group is shown, it is not given here.",
  "data": [
    {"substance": "RSRSRRRRRK [hAP10DR, RSRSRRRRRK]", "values": [
      {"measurement": "LDH activity release in the culture medium (membrane disturbance)", "setting": "various cell lines [1]", "result": "did not induce membrane disturbance"},
      {"measurement": "hemolytic activity", "setting": "Mice red blood cells", "result": "neither hAP10 nor hAP10DR exhibited hemolytic activity"},
      {"measurement": "secreted IL-6", "setting": "[2]", "result": "no significant IL-6 release was detected"},
      {"measurement": "cell viability / cell death of non-T cell population", "setting": "non T-cells (CD3−)", "result": "did not induce cell death"},
      {"measurement": "cell viability / cell death of non-tumoral CD4+ T-cells", "setting": "[3]", "result": "did not induce cell death"}
    ]},
    {"substance": "AAC-11 specific portion: the AAC-11 specific portion (residues 377-399) alone, without shuttle (LQYFARGLQVYIRQLRLALQGKT; UniProt Q9BZZ5 377-399, looked up, fragment)", "values": [
      {"measurement": "cell viability, AAC-11 portion without shuttle", "setting": "various cell lines [4]", "result": "nor the AAC-11 specific portion alone (not shown) decreased cell viability"}
    ]},
    {"substance": "TAT", "values": [
      {"measurement": "cellular distribution of fluorescence", "setting": "U2OS cells", "result": "both a diffuse and punctuate fluorescence distribution"}
    ]},
    {"substance": "RSRSRDRRRKLQYFARGLQVYIRQLRLALQGKT [RT33]", "values": [
      {"measurement": "cytotoxicity in presence of pan-caspase inhibitor zVAD-fmk", "setting": "HUT78", "result": "did not block"},
      {"measurement": "cell viability of normal cells", "setting": "HaCat", "result": "sparing the normal cells tested"},
      {"measurement": "cell viability of normal cells", "setting": "MRC-5", "result": "sparing the normal cells tested"},
      {"measurement": "cell viability / cell death of non-T cell population", "setting": "non T-cells (CD3−)", "result": "neither peptide decreased cell viability"},
      {"measurement": "cell viability / cell death of non-tumoral CD4+ T-cells", "setting": "[3]", "result": "neither peptide decreased cell viability"},
      {"measurement": "tolerability in vivo", "setting": "[5]", "result": "well tolerated in vivo"}
    ]},
    {"substance": "lipopolysaccharide [LPS, reference compound]", "values": [
      {"measurement": "secreted IL-6", "setting": "[2]", "result": "elicited a potent cytokine response"}
    ]},
    {"substance": "RSRSRDRRRK [hAP10, RSRSRDRRRK]", "values": [
      {"measurement": "LDH activity release in the culture medium (membrane disturbance)", "setting": "various cell lines [1]", "result": "did not induce membrane disturbance"},
      {"measurement": "hemolytic activity", "setting": "Mice red blood cells", "result": "neither hAP10 nor hAP10DR exhibited hemolytic activity"},
      {"measurement": "secreted IL-6", "setting": "[2]", "result": "no significant IL-6 release was detected"},
      {"measurement": "cell viability / cell death of non-T cell population", "setting": "non T-cells (CD3−)", "result": "did not induce cell death"},
      {"measurement": "cell viability / cell death of non-tumoral CD4+ T-cells", "setting": "[3]", "result": "did not induce cell death"}
    ]},
    {"substance": "RSRSRRRRRKLQYFARGLQVYIRQLRLALQGKT [RT33DR]", "values": [
      {"measurement": "cytotoxicity in presence of pan-caspase inhibitor zVAD-fmk", "setting": "HUT78", "result": "did not block"},
      {"measurement": "cell viability of normal cells", "setting": "HaCat", "result": "sparing the normal cells tested"},
      {"measurement": "cell viability of normal cells", "setting": "MRC-5", "result": "sparing the normal cells tested"},
      {"measurement": "cell viability / cell death of non-T cell population", "setting": "non T-cells (CD3−)", "result": "neither peptide decreased cell viability"},
      {"measurement": "cell viability / cell death of non-tumoral CD4+ T-cells", "setting": "[3]", "result": "neither peptide decreased cell viability"},
      {"measurement": "tolerability in vivo", "setting": "[5]", "result": "well tolerated in vivo"}
    ]}
  ]
}
